In brackets after ≈: the same amount, converted by molar mass. Where two headings read alike, the source gives them in different places.
Columns and labels:
[1] = test system: levofloxacin-susceptible Staphylococcus aureus strain MS5935-1; assay: Emergence frequency of levofloxacin-resistant Staphylococcus aureus on agar plate medium; format: cell-based; details: for Emergence frequency of levofloxacin resistance mutation (mutations/genera): FALCOR
From the text: Emergence frequency of levofloxacin-resistant Staphylococcus aureus was examined in the presence or absence of apigenin by using a levofloxacin-susceptible Staphylococcus aureus strain according to the following method.
The levofloxacin-susceptible Staphylococcus aureus strain MS5935-1 (strain in which the 80th serine residue from the amino terminus of the wild-type topoisomerase IV encoded by parC is mutated with phenylalanine residue, see, Hiramatsu K., Igarashi M., Morimoto Y, Baba T., Umekita M., Akamatsu Y., Int. J. Antimicrob. Agents, 2012 June; 39(6), 478-85) was cultured overnight at 37° C. with shaking in 4 mL of TBS (produced by Dickinson). After completion of the culture, the cells were suspended in fresh TBS, and the cell suspension was adjusted to have an absorbance of 0.3 measured at 578 nm. Then, the cell suspension was diluted 10,000 times with TBS. This diluted cell suspension was inoculated (0.1 mL each) into ten test tubes containing 4 mL each of TBS, and preculture was carried out overnight at 37° C.
Levofloxacin was dissolved in sterilized water at a concentration of 40 mg/L. This solution of levofloxacin was added on plates in a volume of 1 mL/plate, and 9 mL of M-H (Mueller Hinton) Agar (produced by Becton, Dickinson and Company) was added to each plate. Five of such plates were prepared. […]
Number of the colonies formed on each agar plate medium after the culture of 2 days was counted. The emergence frequency of levofloxacin-resistant Staphylococcus aureus was calculated according to the following equation using the number of colonies and the number of bacterial cells inoculated onto each agar plate medium (CFU, colony forming unit). Further, from the calculated emergence frequency of the levofloxacin-resistant Staphylococcus aureus, emergence frequency of levofloxacin resistance mutation and 95% confidence interval (CI range) were calculated by using FALCOR (Fluctuation AnaLysis CalculatOR, http://www.keshaysingh.org/protocols/FALCOR.html, see, Hall B. M. et al., Bioinformatics., 2009, 25(12), 1564-5). […]

S. aureus Mu50 = assay: microbe, parasite or virus in culture; format: cell-based, Staphylococcus aureus; details: for MIC ratio: (MIC value for S. aureus FDA209P)/(MIC value for S. aureus Mu50); for MIC: Staphylococcus aureus;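 for MIC ratio: ratio is FDA209P MIC divided by Mu50 MIC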
In short: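 Overnight TSB cultures at 37 °C adjusted to A578 0.3, diluted 500-fold in CAMHB and mixed 1:1 with compound in CAMHB; static overnight incubation at 37 °C. MIC reported in mg/L; Mu50 NR-1 also tested in some runs.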

[2] = MU50, read-out: MIC (mg/L) S. aureus Mu50, Example 2, Table 12

`C[C@H]1COc2c(N3CCN(C)CC3)c(F)cc3c(=O)c(C(=O)O)cn1c23` [Levofloxacin, levofloxacin, reference compound] was tested, and the “Emergence frequency of levofloxacin resistance mutation (mutations/genera)” value ([1]; agar plate medium with LVFX 4 mg/L, apigenin 0) was 1.45 × 10^−9 mutations/genera, the MIC ratio (S. aureus Mu50) was 0.016 and the MIC (S. aureus Mu50; [2]) was 8 mg/L (≈ 22.1 µM).

In the case of `O=c1cc(-c2ccc(O)cc2)oc2cc(O)cc(O)c12` [No. 7, 4′,5,7-Trihydroxyflavone], the “Emergence frequency of levofloxacin resistance mutation, medium with levofloxacin and apigenin / medium with levofloxacin” value ([1]; LVFX 4 mg/L, apigenin 32 mg/L) is reported as 1/29, the “Emergence frequency of levofloxacin resistance mutation (mutations/genera)” value ([1]; agar plate medium with LVFX 4 mg/L and apigenin 32 mg/L) is reported as 0.05 × 10^−9 mutations/genera and the MIC ratio (S. aureus Mu50) is reported as greater than 32. For the same molecule, the MIC ratio (S. aureus Mu50; listed as apigenin) was no less than 32, the MIC (S. aureus Mu50; MU50, read-out: MIC (mg/L) Mu50, Example 1, Tables 1 to 10) was 4 mg/L (≈ 14.8 µM) and the MIC (S. aureus Mu50; [2]) was 4 mg/L (≈ 14.8 µM).
